This note sets out measurements from ChEMBL document CHEMBL5226363, “Alkaloids and Coumarins with Adiponectin-Secretion-Promoting Activities from the Leaves of Orixa japonica” (J Nat Prod, 2023).

Activity calls are given as the source filed them. The rule behind the calls is not given here. Some results are limits rather than exact numbers.

The subject of one data set is Mesenchymal stem cells. Briefly: Cytotoxicity against human BMMSC cells assessed as reduction in cell viability at 10 uM incubated for 72 hrs by CCK8 assay. The data set is classed as toxicity, cell-based. (Formazan colour is commonly taken as a measure of viable cells.)
In data set [1] the target is T1, Peroxisome proliferator-activated receptor gamma (Homo sapiens, UniProt P37231).
T1 sequence (P37231 whole entry): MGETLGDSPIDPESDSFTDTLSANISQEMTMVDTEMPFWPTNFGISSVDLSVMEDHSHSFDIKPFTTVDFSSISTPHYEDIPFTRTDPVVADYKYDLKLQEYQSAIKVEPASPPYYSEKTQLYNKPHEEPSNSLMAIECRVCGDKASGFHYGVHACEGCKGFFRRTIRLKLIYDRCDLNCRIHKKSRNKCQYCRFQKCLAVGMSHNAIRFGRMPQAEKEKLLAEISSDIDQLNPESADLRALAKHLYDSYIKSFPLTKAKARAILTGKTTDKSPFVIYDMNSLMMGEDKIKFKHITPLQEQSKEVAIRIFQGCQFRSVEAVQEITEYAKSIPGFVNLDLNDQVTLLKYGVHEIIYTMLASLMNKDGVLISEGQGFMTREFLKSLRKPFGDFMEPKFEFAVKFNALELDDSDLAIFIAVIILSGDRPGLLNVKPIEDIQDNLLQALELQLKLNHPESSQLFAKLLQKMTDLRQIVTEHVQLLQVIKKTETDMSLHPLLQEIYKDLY
The experiment in a line: Agonist activity at PPARgamma in human BMMSC cells assessed as promotion of adiponectin secretion by measuring increase in adiponectin level in presence of IDX medium by ELISA. It counts as cell-based. (An ELISA detects its analyte on a solid surface through an enzyme-linked reagent.)

In data set [2] the target is T1, Peroxisome proliferator-activated receptor gamma. The experiment in a line: Partial agonist activity at GST-tagged PPAR-gamma ligand binding domain (unknown origin) assessed as recruitment of fluorescein-labeled PRIP/RAP250 coactivator peptide by LanthaScreen TR-FRET Coactivator assay. For orientation: Time-resolved FRET reads energy transfer from a long-lived donor to a nearby acceptor.

Data set [3] shares this target. Briefly: Partial agonist activity at GST-tagged PPAR-gamma ligand binding domain (unknown origin) assessed as recruitment of fluorescein-labeled SRC3 coactivator peptide by LanthaScreen TR-FRET Coactivator assay.
Data set [4] has as its target T2, Bile acid receptor (Homo sapiens) (UniProt Q96RI1).
T2 sequence (whole entry): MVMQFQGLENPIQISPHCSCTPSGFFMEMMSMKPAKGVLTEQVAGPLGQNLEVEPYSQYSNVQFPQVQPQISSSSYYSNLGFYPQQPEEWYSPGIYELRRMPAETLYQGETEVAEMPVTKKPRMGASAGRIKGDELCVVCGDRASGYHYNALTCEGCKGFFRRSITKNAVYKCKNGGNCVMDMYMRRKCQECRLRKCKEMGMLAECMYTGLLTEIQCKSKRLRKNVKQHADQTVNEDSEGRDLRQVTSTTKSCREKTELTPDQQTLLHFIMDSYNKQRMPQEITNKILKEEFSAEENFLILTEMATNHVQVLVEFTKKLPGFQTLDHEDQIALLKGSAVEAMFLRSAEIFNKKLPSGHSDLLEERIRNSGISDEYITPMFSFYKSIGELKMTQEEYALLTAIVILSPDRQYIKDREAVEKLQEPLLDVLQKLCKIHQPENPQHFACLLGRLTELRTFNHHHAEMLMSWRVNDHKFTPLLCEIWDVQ
The experiment in a line: Agonist activity at GST-tagged FXR ligand binding domain (unknown origin) at 10 uM LanthaScreen TR-FRET Coactivator assay.

The target in data set [5] is T3, Peroxisome proliferator-activated receptor gamma (Homo sapiens) (UniProt P37231).
T3 sequence (whole entry): T1 sequence (P37231 whole entry)
Briefly: Partial agonist activity at PPARgamma in human BMMSC cells assessed as increase in size and number of intracellular lipid droplets during adipocyte differentiation in presence of IDX medium at 10 uM by Oil Red O/hematoxylin staining based analysis. The data set is classed as cell-based. The settings on record: filed as partial agonist.

Data set [6] addresses T4, Oxysterols receptor LXR-beta (Homo sapiens) (UniProt P55055).
T4 sequence (whole entry): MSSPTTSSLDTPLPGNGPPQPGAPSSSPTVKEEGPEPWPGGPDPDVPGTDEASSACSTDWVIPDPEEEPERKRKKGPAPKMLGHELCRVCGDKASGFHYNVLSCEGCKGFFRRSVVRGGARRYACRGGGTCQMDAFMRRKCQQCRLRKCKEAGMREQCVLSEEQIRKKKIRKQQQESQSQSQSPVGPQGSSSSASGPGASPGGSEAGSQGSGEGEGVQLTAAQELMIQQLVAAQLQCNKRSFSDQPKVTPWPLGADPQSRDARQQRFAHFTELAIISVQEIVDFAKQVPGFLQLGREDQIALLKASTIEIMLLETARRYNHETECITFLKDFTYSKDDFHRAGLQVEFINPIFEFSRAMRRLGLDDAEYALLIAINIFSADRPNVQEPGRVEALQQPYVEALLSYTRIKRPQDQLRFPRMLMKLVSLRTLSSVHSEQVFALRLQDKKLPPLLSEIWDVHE
Briefly: Agonist activity at GST-tagged LXR-beta ligand binding domain (unknown origin) at 10 uM LanthaScreen TR-FRET Coactivator assay.

Data set [7] concerns the target T3, Peroxisome proliferator-activated receptor gamma (Homo sapiens). Briefly: Partial agonist activity at GST-tagged PPAR-gamma ligand binding domain (unknown origin) assessed as recruitment of fluorescein-labeled PRIP/RAP250 coactivator peptide at 10 uM by LanthaScreen TR-FRET Coactivator assay. The settings on record: filed as partial agonist.
Data set [8] deals with T1, Peroxisome proliferator-activated receptor gamma. Briefly: Partial agonist activity at PPARgamma in human BMMSC cells assessed as promotion of adiponectin secretion by measuring increase in adiponectin level in presence of IDX medium by ELISA. It counts as cell-based.
The target in data set [9] is T5, Peroxisome proliferator-activated receptor alpha (Homo sapiens) (UniProt Q07869).
T5 sequence (whole entry): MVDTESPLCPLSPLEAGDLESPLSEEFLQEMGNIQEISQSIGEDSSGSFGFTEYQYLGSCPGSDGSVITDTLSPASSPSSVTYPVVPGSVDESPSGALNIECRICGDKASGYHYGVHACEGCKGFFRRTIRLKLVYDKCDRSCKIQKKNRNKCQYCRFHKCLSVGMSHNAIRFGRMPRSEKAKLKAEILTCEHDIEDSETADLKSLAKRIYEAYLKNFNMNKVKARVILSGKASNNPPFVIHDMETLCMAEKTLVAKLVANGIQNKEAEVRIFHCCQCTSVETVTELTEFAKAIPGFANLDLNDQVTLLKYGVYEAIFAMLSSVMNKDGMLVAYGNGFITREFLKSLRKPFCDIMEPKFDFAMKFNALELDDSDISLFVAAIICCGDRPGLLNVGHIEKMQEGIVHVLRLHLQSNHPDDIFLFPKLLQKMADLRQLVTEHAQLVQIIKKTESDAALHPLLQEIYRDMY
The experiment in a line: Displacement of fluormone pan-PPARgreen from GST-tagged human PPARalpha ligand binding domain at 10 uM by LanthaScreen TR-FRET competitive binding assay.

Data set [10] addresses T1, Peroxisome proliferator-activated receptor gamma. The experiment in a line: Displacement of fluormone pan-PPARgreen from GST-tagged human PPARgamma ligand binding domain by LanthaScreen TR-FRET competitive binding assay.
Data set [11] shares this target. The experiment in a line: Partial agonist activity at GST-tagged PPAR-gamma ligand binding domain (unknown origin) assessed as recruitment of fluorescein-labeled SRC1 coactivator peptide by LanthaScreen TR-FRET Coactivator assay.
Data set [12] concerns the target T6, Peroxisome proliferator-activated receptor delta (Homo sapiens) (UniProt Q03181).
T6 sequence (whole entry): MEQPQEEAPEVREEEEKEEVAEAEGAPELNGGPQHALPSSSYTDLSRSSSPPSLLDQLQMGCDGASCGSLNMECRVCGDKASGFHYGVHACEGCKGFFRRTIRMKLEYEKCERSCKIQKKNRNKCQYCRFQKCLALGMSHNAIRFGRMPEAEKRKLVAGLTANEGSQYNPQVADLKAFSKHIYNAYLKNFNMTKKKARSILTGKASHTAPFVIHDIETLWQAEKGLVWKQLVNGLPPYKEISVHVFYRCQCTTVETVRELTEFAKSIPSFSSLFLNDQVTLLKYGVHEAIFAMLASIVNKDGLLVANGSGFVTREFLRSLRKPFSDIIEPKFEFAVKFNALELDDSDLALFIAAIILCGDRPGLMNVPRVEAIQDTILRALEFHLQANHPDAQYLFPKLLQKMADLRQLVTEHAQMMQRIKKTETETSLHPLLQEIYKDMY
The experiment in a line: Displacement of fluormone pan-PPARgreen from GST-tagged human PPARdelta ligand binding domain at 10 uM by LanthaScreen TR-FRET competitive binding assay.

In data set [13] the target is T3, Peroxisome proliferator-activated receptor gamma (Homo sapiens). The experiment in a line: Partial agonist activity at GST-tagged PPAR-gamma ligand binding domain (unknown origin) assessed as inhibition of pioglitazone-induced recruitment of fluorescein-labeled PRIP/RAP250 coactivator peptide at 10 uM in presence of pioglitazone by LanthaScreen TR-FRET Coactivator assay. The settings on record: filed as partial agonist.

Turning to `C=C[C@]1(C)C[C@H](OC(C)=O)[C@@H](C(C)(C)O)C[C@H]1C(=C)C`, the Activity result in the data set on Mesenchymal stem cells was “Non-Toxic”. In the case of `C=C(C)C(O)COc1c2occc2cc2ccc(=O)oc12` (configuration not stated), the Activity result with Mesenchymal stem cells is “Non-Toxic”. Consider `COc1c(CC(=O)C(C)C)c(=O)n(C)c2ccccc12`, for which the Activity entry with Mesenchymal stem cells is on record as “Non-Toxic”. As for `CC(=O)[C@H]1CC[C@@H]2[C@@H]1[C@H](C(C)C)CC[C@]2(C)O`, the Activity result in the data set on Mesenchymal stem cells is recorded as “Non-Toxic”. `COc1ccc(-c2cc(=O)c3c(O)c(OC)ccc3n2C)cc1`: the Activity entry in the data set on Mesenchymal stem cells is reported as “Non-Toxic”. On the same count and under the same terms, with `COc1c2ccoc2c(OC)c2oc(=O)ccc12` [ISOPIMPINELLIN] the entry was “Non-Toxic”. Still for that read-out and setting: with `O=c1ccc2cc3ccoc3cc2o1` [PSORALEN] the entry was “Non-Toxic”; with `C=C(C)C(O)CC/C(C)=C/COc1ccc2ccc(=O)oc2c1` (configuration not stated), “Non-Toxic”; with `COc1c2occc2cc2ccc(=O)oc12` [METHOXSALEN], “Non-Toxic”. As to `COc1c2ccoc2cc2oc(=O)ccc12` [BERGAPTEN], the Activity entry with Mesenchymal stem cells is listed as “Non-Toxic”. In the case of `Cn1c(-c2ccccc2)cc(=O)c2c(O)cccc21`, in the data set on Mesenchymal stem cells, the Activity entry is “Non-Toxic”. In the case of `COc1c(CC(=O)C(C)C)c(=O)n(C)c2c(OC)c(O)ccc12`, in the data set with Mesenchymal stem cells, the Activity result is listed as “Non-Toxic”. As a reminder, the EC50 is the concentration needed to bring the measured effect to its halfway point. `COc1ccc(Cl)cc1C(=O)NCCc1ccc(S(=O)(=O)NC(=O)NC2CCCCC2)cc1` [GLYBURIDE]: in [1], the EC50 was 2.3 µM. Turning to `COc1c(CC(=O)C(C)C)c(=O)[nH]c2c(OC)cccc12`, in the data set on Mesenchymal stem cells, the Activity result was “Non-Toxic”. With `COc1c(CC=C(C)C)c(=O)[nH]c2c(OC)c(O)ccc12`, the Activity result in the data set on Mesenchymal stem cells is “Non-Toxic”. For `COc1c(CC=C(C)C)c(=O)n(C)c2c(OC)cccc12`, the Activity entry in the data set on Mesenchymal stem cells is on record as “Non-Toxic”. The term Ki denotes the dissociation constant of the complex between target and ligand, obtained from inhibition or displacement. Low readings indicate higher affinity, high ones lower affinity. With `COc1cc2ccc(=O)oc2cc1OC/C=C(\C)CCC=C(C)C`, the concentration for a half-maximal effect (EC50) is 17.3 µM in [2], more than 30 µM in data set [3], 25.8 µM in [8] and more than 30 µM in data set [11]. Besides, the Activity result in the data set with Mesenchymal stem cells is “Non-Toxic”. The outcome in data set [4], in data set [6], in data set [9] and in data set [12] was inactive. In addition, the result in [5], in [7] and in data set [13] was Active. In data set [10], this molecule showed a Ki of 10.7 µM. For `COc1cc2ccc(=O)oc2c(OC)c1OC/C=C(\C)C/C=C/C(C)(C)OO`, the Activity entry in the data set on Mesenchymal stem cells is given as “Non-Toxic”. On to `COc1c(CC(=O)C(C)C)c(=O)n(C)c2c(OC)cccc12` [ORIXALONE A], for which the Activity result with Mesenchymal stem cells is on record as “Non-Toxic”.

Regarding `C=C(C)C(CC/C(C)=C/COc1c(OC)cc2ccc(=O)oc2c1OC)OO` (configuration not stated), the Activity entry in the data set with Mesenchymal stem cells is “Non-Toxic”. The same measure, in the same setting: in the case of `COc1c2c(cc3ccc(=O)oc13)C[C@@H](C(C)(C)OC(C)=O)O2` it was “Non-Toxic”.

`COc1c(CC=C(C)C)c(=O)n(C)c2ccccc12`: in the data set with Mesenchymal stem cells, the Activity entry is on record as “Non-Toxic”. On the same count and under the same terms, in the case of `CC(C)=CCOc1c2occc2cc2ccc(=O)oc12` [PENTOSALEN] it was “Non-Toxic”; in that of `COc1ccc(-c2cc(=O)c3c(O)cccc3n2C)cc1`, “Non-Toxic”. `CC(C)=CCC/C(C)=C/COc1ccc2ccc(=O)oc2c1`: the Activity result in the data set on Mesenchymal stem cells is reported as “Non-Toxic”. In addition, the EC50 in data set [1] is more than 30 µM. Consider `COC(C)(C)/C=C/C/C(C)=C/COc1ccc2ccc(=O)oc2c1`, for which the Activity result in the data set on Mesenchymal stem cells is “Non-Toxic”.

On to `COc1cc2ccc(=O)oc2c(OC)c1OC/C=C(\C)CCC=C(C)C` [ALTISSIMACOUMARIN D], for which the Activity result in the data set on Mesenchymal stem cells was “Non-Toxic”. The EC50 in data set [1] was more than 30 µM. `C=C[C@]1(C)C[C@H](O)[C@@H](C(C)(C)O)C[C@H]1C(=C)C`: in the data set on Mesenchymal stem cells, the Activity result is given as “Non-Toxic”.
